Test results reported in PMC4942054 (PLoS ONE, 2016).

Biological target: T1, dihydrofolate reductase (DHFR) from chicken liver (Gallus gallus, UniProt P00378)
T1 sequence (P00378 1-189): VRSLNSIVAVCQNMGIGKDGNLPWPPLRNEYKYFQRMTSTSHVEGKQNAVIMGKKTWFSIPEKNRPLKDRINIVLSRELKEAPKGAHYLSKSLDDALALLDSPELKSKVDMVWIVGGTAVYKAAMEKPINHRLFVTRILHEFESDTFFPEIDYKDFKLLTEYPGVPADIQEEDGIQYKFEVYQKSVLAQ
Test: DHF-dependent NADPH oxidation, absorbance at […] nm
Assay type: biochemical
Conditions: 0.187 mM DHF, 0.137 mM NADPH, 0.5 M KCl, 0.05 M Tris-HCl pH 7.5, 25°C, 40 min; partially purified enzyme 35 μg/ml; sample released from PEG40 conjugate at pH 3.0, equipotent to MTX-hexamethylenamine

Compound CN(Cc1cnc2nc(N)nc(N)c2n1)c1ccc(C(=O)N[C@@H](CCC(=O)NCCCCCCN)C(=O)O)cc1 [MTX-hexamethylenamine] has an IC50 of 190 ± 7 nM.
